Assay results reported in patent US20230041743A1, “1,8-NAPHTHYRIDIN-2-ONE COMPOUNDS FOR THE TREATMENT OF AUTOIMMUNE DISEASE” (Hoffmann-La Roche Inc., priority 2019, published 2023).

Target: T1, hERG channel (Homo sapiens, UniProt Q12809)
T1 construct: expressed in transfected cells; host or cells: CHO (Chinese hamster ovary), CHOhERG
Assay: hERG channel inhibition assay (patch-clamp, CHOhERG cells)
Assay type: cell-based
Settings: whole-cell patch-clamp; for IC20: human, CHO cells stably expressing hERG (CHOhERG)
Experimental: hERG Channel Inhibition Assay
The hERG K^+ channels were cloned in humans and stably expressed in a CHO (Chinese hamster ovary) cell line. CHOhERG cells were used for patch-clamp (voltage-clamp, whole-cell) experiments. Cells were stimulated by a voltage pattern to activate hERG channels and conduct IKhERG Currents (rapid delayed outward rectifier potassium current of the hERG channel). After the cells were stabilized for a few minutes, the amplitude and kinetics of IKhERG were recorded at a stimulation frequency of 0.1 Hz (6 bpm). Thereafter, the test compound was added to the preparation at increasing concentrations. For each concentration, an attempt was made to reach a steady-state effect, usually, this was achieved within 3-10 min at which time the next highest concentration was applied. The amplitude and kinetics of IKhERG are recorded in each concentration of the drug which were compared to the control values (taken as 100%). (references: Redfern W S, Carlsson L, Davis A S, Lynch W G, MacKenzie I, Palethorpe S, Siegl P K, Strang I, Sullivan A T, Wallis R, Camm A J, Hammond T G. 2003; Relationships between preclinical cardiac electrophysiology, clinical QT interval prolongation and torsade de pointes for a broad range of drugs: evidence for a provisional safety margin in drug development. Cardiovasc. Res. 58:32-45, Sanguinetti M C, Tristani-Firouzi M. 2006; hERG potassium channels and cardiac arrhythmia. Nature 440:463-469, Webster R, Leishman D, Walker D. 2002; Towards a drug concentration effect relationship for QT prolongation and torsades de pointes. Curr. Opin. Drug Discov. Devel. 5:116-26).

T1 sequence (Q12809 whole entry): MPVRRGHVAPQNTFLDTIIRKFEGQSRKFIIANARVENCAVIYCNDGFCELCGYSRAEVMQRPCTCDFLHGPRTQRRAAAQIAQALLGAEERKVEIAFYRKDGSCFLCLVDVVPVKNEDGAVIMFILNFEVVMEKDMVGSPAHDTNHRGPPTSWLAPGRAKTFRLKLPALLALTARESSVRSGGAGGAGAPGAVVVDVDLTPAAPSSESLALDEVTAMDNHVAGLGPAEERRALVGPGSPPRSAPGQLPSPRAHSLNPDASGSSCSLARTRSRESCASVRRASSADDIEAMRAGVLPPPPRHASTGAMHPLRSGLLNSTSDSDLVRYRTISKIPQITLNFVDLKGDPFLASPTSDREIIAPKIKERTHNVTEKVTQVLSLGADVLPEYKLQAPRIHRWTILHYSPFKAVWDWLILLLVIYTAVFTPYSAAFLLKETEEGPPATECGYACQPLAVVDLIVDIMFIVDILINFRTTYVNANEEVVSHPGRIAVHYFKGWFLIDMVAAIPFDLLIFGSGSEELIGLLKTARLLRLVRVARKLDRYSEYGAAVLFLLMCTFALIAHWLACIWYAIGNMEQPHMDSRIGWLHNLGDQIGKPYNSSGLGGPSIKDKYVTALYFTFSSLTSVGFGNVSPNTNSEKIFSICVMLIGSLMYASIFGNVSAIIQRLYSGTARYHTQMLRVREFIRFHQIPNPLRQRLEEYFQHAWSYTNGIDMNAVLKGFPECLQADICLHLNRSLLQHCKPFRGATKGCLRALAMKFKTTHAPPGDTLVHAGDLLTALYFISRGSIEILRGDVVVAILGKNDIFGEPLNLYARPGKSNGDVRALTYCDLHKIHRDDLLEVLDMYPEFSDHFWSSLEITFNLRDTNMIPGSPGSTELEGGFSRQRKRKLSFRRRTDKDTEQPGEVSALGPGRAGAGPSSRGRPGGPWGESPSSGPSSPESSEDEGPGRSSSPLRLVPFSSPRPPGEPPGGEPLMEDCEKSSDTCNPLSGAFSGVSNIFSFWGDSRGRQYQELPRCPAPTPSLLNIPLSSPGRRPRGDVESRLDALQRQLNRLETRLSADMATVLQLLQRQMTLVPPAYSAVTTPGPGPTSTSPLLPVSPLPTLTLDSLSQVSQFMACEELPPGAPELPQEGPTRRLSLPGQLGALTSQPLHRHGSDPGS

Row | Compound | IC20 [µM] | IC50 [µM]
1 | C[C@@H]1CN(c2cc(=O)n(C)c3ncccc23)C[C@@H]2c3ccc(N4C[C@@H]5C[C@H]4CN5)cc3CN12 [Example 19, 4-[(4R,10bS)-8-[(1S,4S)-2,5-diazabicyclo[2.2.1]heptan-2-yl]-4-methyl-3,4,6,10b-tetrahydro-1H-pyrazino[2,1-a]isoindol-2-yl]-1-methyl-1,8-naphthyridin-2-one] | > 10 | > 20
2 | CO[C@@H]1CN(c2ccc3c(c2)CN2[C@H](C)CN(c4cc(=O)n(C)c5ncccc45)C[C@H]32)C[C@H]1N [Example 5, 4-[(4R,10bS)-8-[(3R,4R)-3-amino-4-methoxy-pyrrolidin-1-yl]-4-methyl-3,4,6,10b-tetrahydro-1H-pyrazino[2,1-a]isoindol-2-yl]-1-methyl-1,8-naphthyridin-2-one] | > 10 | > 20
3 | C[C@@H]1CN(c2cc(=O)n(C)c3ncccc23)C[C@@H]2c3ccc(N4CC5(CN(C)C5)C4)cc3CN12 [Example 2, 4-[(4R,10bS)-4-methyl-8-(6-methyl-2,6-diazaspiro[3.3]heptan-2-yl)-3,4,6,10b-tetrahydro-1H-pyrazino[2,1-a]isoindol-2-yl]-1-methyl-1,8-naphthyridin-2-one] | > 10 | > 20
4 | C[C@@H]1CN(c2cc(=O)n(C)c3ncccc23)C[C@@H]2c3ccc(N4CCC[C@](C)(N)C4)cc3CN12 [Example 15, 4-[(4R,10bS)-8-[(3S)-3-amino-3-methyl-1-piperidyl]-4-methyl-3,4,6,10b-tetrahydro-1H-pyrazino[2,1-a]isoindol-2-yl]-1-methyl-1,8-naphthyridin-2-one] | > 10 | > 20
5 | C[C@@H]1CN(c2cc(=O)n(C)c3ncccc23)C[C@@H]2c3ccc(N4CCOC[C@H](N)C4)cc3CN12 [Example 22, 4-[(4R,10bS)-8-[(6R)-6-amino-1,4-oxazepan-4-yl]-4-methyl-3,4,6,10b-tetrahydro-1H-pyrazino[2,1-a]isoindol-2-yl]-1-methyl-1,8-naphthyridin-2-one] | > 10 | > 20
6 | C[C@@H]1CN(c2ccc3c(c2)CN2[C@H](C)CN(c4cc(=O)n(C)c5ncccc45)C[C@H]32)CCN1 [Example 14, 4-[(4R,10bS)-4-methyl-8-[(3R)-3-methylpiperazin-1-yl]-3,4,6,10b-tetrahydro-1H-pyrazino[2,1-a]isoindol-2-yl]-1-methyl-1,8-naphthyridin-2-one] | > 10 | > 20
7 | C[C@@H]1CN(c2cc(=O)n(C)c3ncccc23)C[C@@H]2c3ccc(N4CCN[C@@H](C)C4)cc3CN12 [Example 13, 4-[(4R,10bS)-4-methyl-8-[(3S)-3-methylpiperazin-1-yl]-3,4,6,10b-tetrahydro-1H-pyrazino[2,1-a]isoindol-2-yl]-1-methyl-1,8-naphthyridin-2-one] | 7.2 | > 20
8 | C[C@@H]1CN(c2cc(=O)n(C)c3ncccc23)C[C@@H]2c3ccc(N4CCC(C)(N)CC4)cc3CN12 [Example 18, 4-[(4R,10bS)-8-(4-amino-4-methyl-1-piperidyl)-4-methyl-3,4,6,10b-tetrahydro-1H-pyrazino[2,1-a]isoindol-2-yl]-1-methyl-1,8-naphthyridin-2-one] | > 10 | > 20
9 | C[C@@H]1CN(c2cc(=O)n(C)c3ncccc23)C[C@@H]2c3ccc(C4CCNCC4)cc3CN12 [Example 24, 4-[(4R,10bS)-4-methyl-8-(4-piperidyl)-3,4,6,10b-tetrahydro-1H-pyrazino[2,1-a]isoindol-2-yl]-1-methyl-1,8-naphthyridin-2-one] | > 10 | > 20
